# Laboratory results published in patent US20200157088A1, “BENZENE FUSED HETEROCYCLIC COMPOUND AND USE THEREOF” (TAIWANJ PHARMACEUTICALS CO., LTD., priority 2017, published 2020).
# Biological target: T1, autotaxin (Homo sapiens, UniProt Q13822)
# T1 construct: purchased Cayman 10803
# Assay: Autotaxin inhibitor screening assay (choline release from LPC)
# Format: biochemical
# Conditions: not given
# Protocol: Autotaxin activity was measured by choline release from LPC in presence or absence of compound.
# Twenty (20) ng autotaxin (10803, Cayman, MI, USA) was incubated with 100 μM 14:0 LPC (855575P, Avanti, AL, USA) in a final volume of 100 μL buffer containing 50 mM Tris pH 8.0, 0.01% Triton X-100, 50 mM CaCl2, 1 unit/ml choline oxidase, 2 unit/ml HRP, 2 mM homovanilic acid (HVA). The relative amount of released choline was measured by HVA fluorescence in a 96-well plate. Fluorescent intensity was determined at λex/λem=320/450 nm every 60 seconds for 90 minutes with a SpectraMax i3 (Molecular Devices, CA, USA). Data analysis was performed using GraphPad Prism (GraphPad, La Jolla Calif., USA).
# Inhibition %=[1−SlopeTA−SlopeBlank)/(Slopevehicle−SlopeBlank)]×100%
row,Compound,inhibition at 1 µM [%]
1,CN(C(=O)OCc1cc(Cl)cc(Cl)c1)C1CCc2ccc(C3=CCN(CC(=O)N4CCC(=O)CC4)CC3)cc21 (centres unmarked) [Compound 11],50 to 80
2,CN(c1nc(-c2ccccc2)cs1)C1CCc2ccc(N3CCN(CC(=O)N4CC(O)C4)CC3)cc21 (centres unmarked) [Compound 44],< 50
3,CN(c1nc(-c2ccc(Cl)cc2)c(C#N)s1)C1CCCc2ccc(N3CCN(CC(=O)N4CC(O)C4)CC3)cc21 (centres unmarked) [Compound 51],< 50
4,Cc1cc(Cl)cc(COC(=O)N(C)C2CCc3ccc(C4=CCN(C(=O)CN5C(=O)CSC5=S)CC4)cc32)c1 (centres unmarked) [Compound 92],> 80

# Same assay, conditions: inhibition of autotaxin enzyme activity at 1 μM compound; 100 μM 14:0 LPC; read-out: Inhibition
row,Compound,inhibition at 1 µM [%]
1,"CN(C(=O)OCc1cc(Cl)cc(Cl)c1)C1CCc2ccc(C3=CCN(CC(=O)N4CC(O)C4)CC3)cc21 (centres unmarked) [Compound 8, 3,5-dichlorobenzyl(6-(1-(2-(3-hydroxyazetidin-1-yl)-2-oxoethyl)-1,2,3,6-tetrahydropyridin-4-yl)-2,3-dihydro-1H-inden-1-yl)(methyl)carbamate]",50 to 80
2,"CN(C(=O)OCc1cc(Cl)cc(Cl)c1)C1CCc2ccc(C3=CCN(C(=O)CN4C(=O)CSC4=S)CC3)cc21 (centres unmarked) [Compound 9, 3,5-dichlorobenzyl methyl(6-(1-(2-(4-oxo-2-thioxothiazolidin-3-yl)acetyl)-1,2,3,6-tetrahydropyridin-4-yl)-2,3-dihydro-1H-inden-1-yl)carbamate]",> 80
3,CN(C(=O)OCc1cc(Cl)cc(Cl)c1)C1CCc2ccc(C3=CCN(CC(=O)N4CCOCC4)CC3)cc21 (centres unmarked) [Compound 10],50 to 80
4,CN(C(=O)OCc1cc(Cl)cc(Cl)c1)C1CCc2ccc(C3=CCN(CC(=O)N4CC[C@@H](O)C4)CC3)cc21 (some centres unmarked) [Compound 12],50 to 80
5,CN(C(=O)OCc1cc(Cl)cc(Cl)c1)C1CCc2ccc(C3=CCN(CC(=O)N4CCCC4)CC3)cc21 (centres unmarked) [Compound 13],< 50
6,CCN(CC)C(=O)CN1CC=C(c2ccc3c(c2)C(N(C)C(=O)OCc2cc(Cl)cc(Cl)c2)CC3)CC1 (centres unmarked) [Compound 14],< 50
7,CCOC(=O)N1CCN(C(=O)CN2CC=C(c3ccc4c(c3)C(N(C)C(=O)OCc3cc(Cl)cc(Cl)c3)CC4)CC2)CC1 (centres unmarked) [Compound 15],< 50
8,CN(C(=O)OCc1cc(Cl)cc(Cl)c1)C1CCc2ccc(C3=CCN(CC(=O)N4CCS(=O)(=O)CC4)CC3)cc21 (centres unmarked) [Compound 16],50 to 80
9,CN(C(=O)OCc1cc(Cl)cc(Cl)c1)C1CCc2ccc(C3=CCN(CC(=O)N4CCN(S(C)(=O)=O)CC4)CC3)cc21 (centres unmarked) [Compound 17],50 to 80
10,CN(C(=O)OCc1cc(Cl)cc(Cl)c1)C1CCc2ccc(C3=CCN(C(=O)CN4CCOCC4)CC3)cc21 (centres unmarked) [Compound 18],> 80
11,CN(C(=O)OCc1cc(Cl)cc(Cl)c1)C1CCc2ccc(C3=CCN(CC(=O)N4CCCC(O)C4)CC3)cc21 (centres unmarked) [Compound 19],< 50
12,CN(C(=O)OCc1cc(Cl)cc(Cl)c1)C1CCc2ccc(C3=CCN(CC(=O)NS(C)(=O)=O)CC3)cc21 (centres unmarked) [Compound 20],50 to 80
13,CN(C(=O)OCc1cc(Cl)cc(Cl)c1)C1CCc2ccc(C3=CCN(CC(=O)N(C)S(C)(=O)=O)CC3)cc21 (centres unmarked) [Compound 21],50 to 80
14,CN(C(=O)OCc1cc(Cl)cc(Cl)c1)C1CCc2ccc(C3=CCN(C(=O)CS(C)(=O)=O)CC3)cc21 (centres unmarked) [Compound 22],> 80
15,CN(C(=O)OCc1cc(Cl)cc(Cl)c1)C1CCc2ccc(C3=CCN(C(=O)C(=O)N4CCOCC4)CC3)cc21 (centres unmarked) [Compound 23],50 to 80
16,CN(C(=O)OCc1cc(Cl)cc(Cl)c1)C1CCc2ccc(C3=CCN(C(=O)CN4CC(O)C4)CC3)cc21 (centres unmarked) [Compound 24],< 50
17,CN(C(=O)OCc1cc(Cl)cc(Cl)c1)C1CCc2ccc(C3=CCN(C(=O)CN4CCN(S(C)(=O)=O)CC4)CC3)cc21 (centres unmarked) [Compound 25],> 80
18,CN(C(=O)OCc1cc(Cl)cc(Cl)c1)C1CCc2ccc(C3=CCN(C(=O)CN4C(=O)CCC4=O)CC3)cc21 (centres unmarked) [Compound 26],< 50
19,CN(C(=O)OCc1cc(Cl)cc(Cl)c1)C1CCc2ccc(C3=CCN(C(=O)CN4C(=O)C=CC4=O)CC3)cc21 (centres unmarked) [Compound 27],> 80
20,CN(C(=O)OCc1cc(Cl)cc(Cl)c1)C1CCc2ccc(C3=CCN(C(=O)CCN4C(=O)CSC4=S)CC3)cc21 (centres unmarked) [Compound 28],50 to 80
21,CN(C(=O)OCc1cc(Cl)cc(Cl)c1)C1CCc2ccc(C3=CCN(C(=O)CNS(C)(=O)=O)CC3)cc21 (centres unmarked) [Compound 29],> 80
22,CN(C(=O)OCc1cc(Cl)cc(Cl)c1)C1CCc2ccc(C3=CCN(C(=O)CN(C)S(C)(=O)=O)CC3)cc21 (centres unmarked) [Compound 30],> 80

row,Compound,inhibition at 1 µM [%]
1,"CN(C(=O)OCc1cc(Cl)cc(Cl)c1)C1CCc2ccc(N3CCN(CC(=O)N4CC(O)C4)CC3)cc21 (centres unmarked) [Compound 33, 3,5-dichlorobenzyl (6-(4-(2-(3-hydroxyazetidin-1-yl)-2-oxoethyl)piperazin-1-yl)-2,3-dihydro-1H-inden-1-yl)(methyl)carbamate]",50 to 80
2,"CN(C(=O)OCc1cc(Cl)cc(Cl)c1)C1CCc2ccc(N3CCN(C(=O)CN4CCOCC4)CC3)cc21 (centres unmarked) [Compound 34, 3,5-dichlorobenzyl methyl(6-(4-(2-morpholinoacetyl)piperazin-1-yl)-2,3-dihydro-1H-inden-1-yl)carbamate]",50 to 80
3,CN(C(=O)OCc1cc(Cl)cc(Cl)c1)C1CCc2ccc(N3CCN(C(=O)CN4C(=O)CSC4=S)CC3)cc21 (centres unmarked) [Compound 36],> 80
4,CN(C(=O)OCc1cc(Cl)cc(Cl)c1)C1CCc2ccc(N3CCN(C(=O)CS(C)(=O)=O)CC3)cc21 (centres unmarked) [Compound 37],50 to 80
5,CN(C(=O)OCc1cc(Cl)cc(Cl)c1)C1CCCc2ccc(N3CCN(CC(=O)N4CC(O)C4)CC3)cc21 (centres unmarked) [Compound 38],< 50
6,"CN(c1nc(-c2ccc(F)cc2)cs1)C1CCc2ccc(N3CCN(CC(=O)N4CC(O)C4)CC3)cc21 (centres unmarked) [Compound 43, 2-(4-(3-((4-(4-fluorophenyl)thiazol-2-yl)(methyl)amino)-2,3-dihydro-1H-inden-5-yl)piperazin-1-yl)-1-(3-hydroxyazetidin-1-yl)ethan-1-one]",< 50
7,"CN(c1nc(-c2ccc(F)cc2)c(C#N)s1)C1CCc2ccc(N3CCN(CC(=O)N4CC(O)C4)CC3)cc21 (centres unmarked) [Compound 50, 4-(4-fluorophenyl)-2-((6-(4-(2-(3-hydroxyazetidin-1-yl)-2-oxoethyl)piperazin-1-yl)-2,3-dihydro-1H-inden-1-yl)(methyl)amino)thiazole-5-carbonitrile]",< 50
8,CN(c1nc(-c2ccc(Cl)cc2)c(C#N)s1)C1CCc2ccc(N3CCN(CC(=O)N4CC(O)C4)CC3)cc21 (centres unmarked) [Compound 52],< 50
9,CN(c1nc(-c2ccc(F)cc2)c(C#N)s1)C1CCCc2ccc(N3CCN(CC(=O)N4CC(O)C4)CC3)cc21 (centres unmarked) [Compound 53],< 50
10,CN(c1nc(-c2ccc(Cl)cc2)c(C#N)s1)C1CCc2ccc(N3CCN(C(=O)CN4C(=O)CSC4=S)CC3)cc21 (centres unmarked) [Compound 54],< 50
11,"CN(c1nc(-c2ccc(Cl)cc2)c(C#N)s1)C1CCc2ccc(C3=CCN(CC(=O)N4CC(O)C4)CC3)cc21 (centres unmarked) [Compound 58, 4-(4-chlorophenyl)-2-((6-(1-(2-(3-hydroxyazetidin-1-yl)-2-oxoethyl)-1,2,3,6-tetrahydropyridin-4-yl)-2,3-dihydro-1H-inden-1-yl)(methyl)amino)thiazole-5-carbonitrile]",< 50
12,CN(c1nc(-c2cc(Cl)cc(Cl)c2)c(C#N)s1)C1CCc2ccc(C3=CCN(CC(=O)N4CC(O)C4)CC3)cc21 (centres unmarked) [Compound 59],< 50
13,CCC1Cc2ccc(C3=CCN(CC(=O)N4CC(O)C4)CC3)cc2C1N(C)c1nc(-c2ccc(Cl)cc2)c(C#N)s1 (centres unmarked) [Compound 60],< 50
14,CCC1Cc2ccc(C3=CCN(CC(=O)N4CC(O)C4)CC3)cc2C1N(C)c1nc(-c2cc(Cl)cc(Cl)c2)c(C#N)s1 (centres unmarked) [Compound 61],< 50
15,"CN(C(=O)OCc1cc(Cl)cc(Cl)c1)c1coc2ccc(N3CCN(C(=O)CN4C(=O)CSC4=S)CC3)cc12 [Compound 66, 3,5-dichlorobenzyl methyl(5-(4-(2-(4-oxo-2-thioxothiazolidin-3-yl)acetyl)piperazin-1-yl)benzofuran-3-yl)carbamate]",> 80
16,"CN(C(=O)OCc1cc(Cl)cc(Cl)c1)c1coc2ccc(C3=CCN(C(=O)CN4C(=O)CSC4=S)CC3)cc12 [Compound 69, 3,5-dichlorobenzyl methyl(5-(1-(2-(4-oxo-2-thioxothiazolidin-3-yl)acetyl)-1,2,3,6-tetrahydropyridin-4-yl)benzofuran-3-yl)carbamate]",> 80
17,CN(CCOc1ccc(F)cc1F)C1CCc2ccc(N3CCN(CC(=O)N4CC(O)C4)CC3)cc21 (centres unmarked) [Compound 73],< 50
18,CN(CCOc1ccc(F)cc1F)C1CCCc2ccc(N3CCN(CC(=O)N4CC(O)C4)CC3)cc21 (centres unmarked) [Compound 74],< 50
19,"N#Cc1cn(Cc2coc3ccc(C4=CCN(CC(=O)N5CC(O)C5)CC4)cc23)nc1-c1ccc(Cl)cc1 [Compound 82, 3-(4-chlorophenyl)-1-((5-(1-(2-(3-hydroxyazetidin-1-yl)-2-oxoethyl)-1,2,3,6-tetrahydropyridin-4-yl)benzofuran-3-yl)methyl)-1H-pyrazole-4-carbonitrile]",< 50
20,CN(C(=O)OCc1cc(Cl)cc(Cl)c1)c1csc2ccc(C3=CCN(C(=O)CN4C(=O)CSC4=S)CC3)cc12 [Compound 85],> 80
21,CN(C(=O)OCc1cc(Cl)cc(C(F)(F)F)c1)C1CCc2ccc(C3=CCN(C(=O)CN4C(=O)CSC4=S)CC3)cc21 (centres unmarked) [Compound 93],> 80
